Each structure is given as a SMILES string.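 In this assay, cells in 96-well plates receive the compound at five concentrations for 48 hours. Endpoints are linearly interpolated between the surrounding concentrations. GI50: concentration for 50% inhibition of growth. At the TGI there is no net growth.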 Some results are limits rather than exact numbers.

Experimental findings from PubChem BioAssay (NCI) are described below.

One experiment concerns TK-10 renal. In words: NCI tumour cell line growth inhibition, 48 h.
In turn, `Nc1c(Cl)ncnc1N[C@@H]1C[C@H]1CO` had a TGI of over 100 µM.

As to `C=CCCC(=O)CC(O)(C(F)(F)F)C(F)(F)F`, the TGI was over 100 µM.

As to `CC(=O)c1ccc2c3c1[C@@H]1O[C@@H]1c1cccc(c1-3)[C@@H]1O[C@H]21`, the TGI is over 77.1 µM.

With `CCN1C(=O)C(=C/C=C/c2ccc([N+](=O)[O-])cc2)C(=O)N(CC)C1=S`, the TGI was 37.8 µM.

Another experiment has as its system SF-268 CNS. In words: NCI tumour cell line growth inhibition, 48 h.
Take `Nc1c(Cl)ncnc1N[C@@H]1C[C@H]1CO`: the TGI was over 100 µM.

In the case of `CC(=O)c1ccc2c3c1[C@@H]1O[C@@H]1c1cccc(c1-3)[C@@H]1O[C@H]21`, the TGI was 27.4 µM.

With `CCN1C(=O)C(=C/C=C/c2ccc([N+](=O)[O-])cc2)C(=O)N(CC)C1=S`, the TGI was found to be 53 µM.

For a further experiment, the system named is CAKI-1 renal. In words: NCI tumour cell line growth inhibition, 48 h.
As to `Nc1c(Cl)ncnc1N[C@@H]1C[C@H]1CO`, the TGI was over 100 µM.

For the molecule `C=CCCC(=O)CC(O)(C(F)(F)F)C(F)(F)F`, the TGI was over 100 µM.

Turning to `CC(=O)c1ccc2c3c1[C@@H]1O[C@@H]1c1cccc(c1-3)[C@@H]1O[C@H]21`, the TGI was 15 µM.

The molecule `CCN1C(=O)C(=C/C=C/c2ccc([N+](=O)[O-])cc2)C(=O)N(CC)C1=S` had a TGI of 68.7 µM.

Another experiment has as its system MALME-3M melanoma. The experiment in a line: NCI tumour cell line growth inhibition, 48 h.
Molecule `C=CCCC(=O)CC(O)(C(F)(F)F)C(F)(F)F` came in with a TGI of over 100 µM.

In the case of `CC(=O)c1ccc2c3c1[C@@H]1O[C@@H]1c1cccc(c1-3)[C@@H]1O[C@H]21`, the TGI was 20.3 µM.

The test system of another experiment is MDA-MB-231 breast. In words: NCI tumour cell line growth inhibition, 48 h.
On to `Nc1c(Cl)ncnc1N[C@@H]1C[C@H]1CO`, for which the TGI was over 100 µM.

In the case of `C=CCCC(=O)CC(O)(C(F)(F)F)C(F)(F)F`, the TGI was over 100 µM.

On to `CC(=O)c1ccc2c3c1[C@@H]1O[C@@H]1c1cccc(c1-3)[C@@H]1O[C@H]21`, for which the TGI was found to be 42.9 µM.

`CCN1C(=O)C(=C/C=C/c2ccc([N+](=O)[O-])cc2)C(=O)N(CC)C1=S` showed a TGI of 47 µM.

A further experiment has as its system SR leukemia. The experiment in a line: NCI tumour cell line growth inhibition, 48 h.
`Nc1c(Cl)ncnc1N[C@@H]1C[C@H]1CO` had a TGI of over 100 µM.

In the case of `C=CCCC(=O)CC(O)(C(F)(F)F)C(F)(F)F`, the TGI was over 100 µM.

`CC(=O)c1ccc2c3c1[C@@H]1O[C@@H]1c1cccc(c1-3)[C@@H]1O[C@H]21` showed a TGI of over 100 µM.

The test system of the next experiment is RPMI-8226 leukemia. In words: NCI tumour cell line growth inhibition, 48 h.
The molecule `C=CCCC(=O)CC(O)(C(F)(F)F)C(F)(F)F` returned a TGI of over 100 µM.

`CC(=O)c1ccc2c3c1[C@@H]1O[C@@H]1c1cccc(c1-3)[C@@H]1O[C@H]21`: the TGI was over 100 µM.

For the molecule `CCN1C(=O)C(=C/C=C/c2ccc([N+](=O)[O-])cc2)C(=O)N(CC)C1=S`, the TGI came to 95.8 µM.

Another experiment deals with LOX IMVI melanoma. In words: NCI tumour cell line growth inhibition, 48 h.
On to `Nc1c(Cl)ncnc1N[C@@H]1C[C@H]1CO`, for which the TGI was over 100 µM.

Take `C=CCCC(=O)CC(O)(C(F)(F)F)C(F)(F)F`: the TGI is over 100 µM.

As for `CC(=O)c1ccc2c3c1[C@@H]1O[C@@H]1c1cccc(c1-3)[C@@H]1O[C@H]21`, the GI50 was 2.6 µM and the TGI stood at 6.21 µM.

On to `CCN1C(=O)C(=C/C=C/c2ccc([N+](=O)[O-])cc2)C(=O)N(CC)C1=S`, for which the TGI turned out to be 33.2 µM.

For the next experiment, the system named is SF-539 CNS. The experiment in a line: NCI tumour cell line growth inhibition, 48 h.
As to `Nc1c(Cl)ncnc1N[C@@H]1C[C@H]1CO`, the TGI is over 100 µM.

For the molecule `C=CCCC(=O)CC(O)(C(F)(F)F)C(F)(F)F`, the TGI was over 100 µM.

Regarding `CCN1C(=O)C(=C/C=C/c2ccc([N+](=O)[O-])cc2)C(=O)N(CC)C1=S`, the TGI came to 40.1 µM.

The next experiment relates to A498 renal. The experiment in a line: NCI tumour cell line growth inhibition, 48 h.
Regarding `Nc1c(Cl)ncnc1N[C@@H]1C[C@H]1CO`, the TGI was over 100 µM.

In the case of `C=CCCC(=O)CC(O)(C(F)(F)F)C(F)(F)F`, the TGI was over 100 µM.

Regarding `CC(=O)c1ccc2c3c1[C@@H]1O[C@@H]1c1cccc(c1-3)[C@@H]1O[C@H]21`, the TGI is over 85.8 µM.

For a further experiment, the system named is NCI/ADR-RES ovarian. The experiment in a line: NCI tumour cell line growth inhibition, 48 h.
In turn, `Nc1c(Cl)ncnc1N[C@@H]1C[C@H]1CO` showed a TGI of over 100 µM.

In the case of `C=CCCC(=O)CC(O)(C(F)(F)F)C(F)(F)F`, the TGI was over 100 µM.

With `CC(=O)c1ccc2c3c1[C@@H]1O[C@@H]1c1cccc(c1-3)[C@@H]1O[C@H]21`, the TGI was over 74.6 µM.

In the case of `CCN1C(=O)C(=C/C=C/c2ccc([N+](=O)[O-])cc2)C(=O)N(CC)C1=S`, the TGI amounted to 45.2 µM.

Another experiment relates to 786-0 renal. In words: NCI tumour cell line growth inhibition, 48 h.
`Nc1c(Cl)ncnc1N[C@@H]1C[C@H]1CO` gave a TGI of over 100 µM.

On to `C=CCCC(=O)CC(O)(C(F)(F)F)C(F)(F)F`, for which the TGI is over 100 µM.

In turn, `CC(=O)c1ccc2c3c1[C@@H]1O[C@@H]1c1cccc(c1-3)[C@@H]1O[C@H]21` displayed a TGI of 24.9 µM.

With `CCN1C(=O)C(=C/C=C/c2ccc([N+](=O)[O-])cc2)C(=O)N(CC)C1=S`, the TGI came out at 34.3 µM.

In another experiment the test system is NCI-H23 lung. The experiment in a line: NCI tumour cell line growth inhibition, 48 h.
`Nc1c(Cl)ncnc1N[C@@H]1C[C@H]1CO` gave a TGI of over 100 µM.

For the molecule `C=CCCC(=O)CC(O)(C(F)(F)F)C(F)(F)F`, the TGI is over 100 µM.

In the case of `CC(=O)c1ccc2c3c1[C@@H]1O[C@@H]1c1cccc(c1-3)[C@@H]1O[C@H]21`, the TGI came to 23.3 µM.

Molecule `CCN1C(=O)C(=C/C=C/c2ccc([N+](=O)[O-])cc2)C(=O)N(CC)C1=S` came in with a TGI of 32.8 µM.

Another experiment concerns SF-295 CNS. In words: NCI tumour cell line growth inhibition, 48 h.
Turning to `Nc1c(Cl)ncnc1N[C@@H]1C[C@H]1CO`, the TGI was over 100 µM.

In turn, `C=CCCC(=O)CC(O)(C(F)(F)F)C(F)(F)F` displayed a TGI of over 100 µM.

`CC(=O)c1ccc2c3c1[C@@H]1O[C@@H]1c1cccc(c1-3)[C@@H]1O[C@H]21` returned a TGI of 38.3 µM.

The molecule `CCN1C(=O)C(=C/C=C/c2ccc([N+](=O)[O-])cc2)C(=O)N(CC)C1=S` returned a TGI of over 100 µM.

For a further experiment, the system named is HL-60(TB) leukemia. The experiment in a line: NCI tumour cell line growth inhibition, 48 h.
In turn, `Nc1c(Cl)ncnc1N[C@@H]1C[C@H]1CO` showed a TGI of over 100 µM.

Turning to `C=CCCC(=O)CC(O)(C(F)(F)F)C(F)(F)F`, the TGI was over 100 µM.

`CC(=O)c1ccc2c3c1[C@@H]1O[C@@H]1c1cccc(c1-3)[C@@H]1O[C@H]21` yielded a TGI of 35 µM.

Regarding `CCN1C(=O)C(=C/C=C/c2ccc([N+](=O)[O-])cc2)C(=O)N(CC)C1=S`, the TGI is over 100 µM.

A further experiment deals with UACC-62 melanoma. The experiment in a line: NCI tumour cell line growth inhibition, 48 h.
Regarding `Nc1c(Cl)ncnc1N[C@@H]1C[C@H]1CO`, the TGI was over 100 µM.
